Data set [1] deals with panel of human tumor cell lines as well as normal endothelial cells. The data set is described as follows: Growth inhibition (IC50) of human tumor cell lines and normal endothelial cells. The format is cell-based. Conditions: newly synthesized compounds compared with compounds synthesized by the original method. From the text:
Before conducting experiments with newly synthesized 3- and 4-F-GlcNAc the effects of 3- and 4-F-GlcNAc on the growth of a panel of human tumor cell lines as well as normal endothelial cells (i.e. IC50 values) were first determined and compared with the original growth inhibitory action (9 Bernacki, R. J. et al. (1977) J. Supra. Stru., 7:235–250; 10 Sharma, M. and W. Korytnyk (1980) Carbohyd. Res., 79:39–51;11 Sharma, M. et al. (1990). Carbohyd. Res., 198:205–22).

The conditions of data set [2]: previous studies; cited from earlier work.
Data set [3] deals with human ovarian, A121, tumor cells. Conditions: cited from earlier work.
Data set [4] relates to P-selectin ligand activity of CLA+ T-lymphocytes. The data set can be described thus: Parallel-plate flow chamber, CLA+ T-cell tethering and rolling on P-selectin chimera. The format is cell-based, human. The procedure: (§1) To analyze the affects of 4-F-GlcNAc on the function of CLA on human T-cells, we examined the ability of 4-F-GlcNAc-treated (0.05, 0.1, 0.5 mM for 30 hrs) CLA-+ T-cells cultures to engage with immobilized E- and P-selectin chimera in the parallel-plate flow chamber. As described for flow cytometric analyses (Example 13), cells were first pretreated with neuraminidase to remove terminal sialic acid residues required for HECA-452 reactivity and for E- and P-selectin ligand activity of CLA. This approach allowed for the assessment on de novo synthesized CLA molecules.
(§2) Tethering and rolling of human T-cells on recombinant human E- and P-selectin-Ig chimera (provided by Dr. Robert Fuhlbrigge, Harvard Medical School) and human L-selectin-Ig (gift from Dr. Ray Camphausen, Wyeth/Genetics Institute, Inc., Cambridge, Mass.) were analyzed in the parallel-plate flow chamber under physiologic shear stress conditions (3). To prepare E- and P-selectin-Ig chimera spots, protein A (300 μg/15 μl 0.1M NaHCO3) was adsorbed to Ten-twenty-nine™ Petri dishes for 2 h at 37° C. Human serum albumin ([…] PBS) then added and incubated for 2 h at 37° C. to block non-specific binding sites. E-selectin-Ig (50 ng/50 μl PBS) or P-selectin-Ig (50 ng/50 μl PBS) solutions was pipetted directly over the pre-existing protein A spots for 18 h at 4° C. To prepare L-selectin-Ig spots, L-selectin-Ig (300 ng/15 μl PBS) or isotype control human IgG (300 ng/15 μl) were adsorbed directly to plastic (non-protein A-coated) for 18 h at 4° C. and blocked in 100% FBS for 2 h at 4° C.
(§3) CLA^+ T-cells or freshly isolated PBL were treated with neuraminidase and metabolic glycosylation inhibitors or with protease (bromelain) as described above, washed twice in HBSS, suspended at 2×10^6/ml in HBSS/10 mM HEPES/2 mM CaCl2 (H/H/Ca^++) and infused into the chamber over selectin chimeras. Protease treatment was performed to control for residual E-selectin activity not attributable to the expression of CLA on a protein scaffold. Cell tethering was permitted at 0.6 dynes/cm^2 for 1 min, then stepwise increments in shear stress every 15 sec were employed to a final shear stress level of 60 dynes/cm^2. The number of cells rolling/viewing field (at 100× magnification) was quantified at each level of shear stress in triplicates for a minimum of three experiments. […] Negative control experiments were performed in parallel, wherein cell binding was examined in H/H adhesion assay medium containing 5 mM EDTA as well as assaying cell binding to human IgG isotype control.
(§4) Utilizing the parallel-plate flow chamber under physiologic shear stress conditions, E-, P- and L-selectin ligand activities of human CLA^+ T-cells treated were analyzed in an identical manner as cells prepared for Western blotting and autoradiography studies.

Data set [5] has as its system E-selectin ligand activity of CLA+ T-lymphocytes. The data set can be described thus: Parallel-plate flow chamber, CLA+ T-cell tethering and rolling on E-selectin chimera. The format is cell-based, human. The protocol:
as §1, §2, §3, §4

For data set [6], the system named is L-selectin ligand activity of human CLA+ T-cells. The data set is described as follows: Parallel-plate flow chamber, CLA+ T-cell rolling on L-selectin chimera. The format is cell-based. The protocol:
as §2, §3, §4

For data set [7], the system named is HECA-452 epitopes on PSGL-1. The data set can be described thus: Western blot of HECA-452 epitopes on PSGL-1 of CLA+ T-cells. The format is cell-based, human. The protocol:
For analysis of CLA expression on T-cells treated with glycoconjugate modifiers, CLA^+ T-cells were first pretreated with neuraminidase (0.1 U/ml at 37° C. for 1 h) to eliminate functional CLA and cleave all HECA-452 reactive epitopes from the cell surface (35–38). Since we wanted to investigate whether these compounds directly affected CLA expression and function, neuraminidase pretreatment followed by incubations with glycosylation modifiers allowed for examination of de novo synthesized CLA/HECA-452 epitopes re-expressed on the cell surface. After neuraminidase digestion, cells were then incubated with tunicamycin (0.02 mM) (an inhibitor of GlcNAc phosphotransferase, the initial step of N-glycosylation), swainsonine (0.23 mM) (an inhibitor of α-mannosidase II and complex-type N-glycosylation), 4-F-GlcNAc (0.05 mM) (putative inhibitor of poly-N-acetyllactosamine biosynthesis), BAG (an inhibitor of O-glycan biosynthesis) (<2 mM) or GlcNAc (5 mM) (negative control, naturally-occurring metabolic counterpart of 4-F-GlcNAc)for 30 h in the presence of human recombinant IL-2. […] Concentrations for BAG were selected based on maximal O-glycosylation inhibitory effects at non-growth inhibitory concentrations as previously reported (39). To determine a suitable concentration of 4-F-GlcNAc for examining glycoconjugate-modifying effects without influencing cell growth or protein synthesis, we performed preliminary growth inhibitory experiments of cells incubated with 4-F-GlcNAc for 2 cell doublings (˜36 h) at 37° C. (cell viability assessed by Trypan-blue exclusion).
For lysate preparation, cells (including radiolabeled cells) were washed 3× in ice cold PBS and lysed in buffer containing 150 mM NaCl, 50 mM Tris-HCl pH 7.4, 1 mM EDTA, 0.02% NaAzide, 20 μg/ml PMSF, Complete™ protease inhibitors cocktail tablets (Roche Molecular Biochemicals) and 2% NP-40 (250 μl/10^8 cells). Following 2 h incubation on ice, insoluble cellular debris was pelleted by centrifugation for 30 min at 10,000×g at 4° C. and solubilized protein lysate was collected and quantified by Bradford protein assay (Sigma Chemical). SDS was added to a final concentration of 1% in lysate preparations utilized for immunoprecipitation experiments.
For SDS-PAGE and Western blotting, cell lysates, membrane proteins or immunoprecipitates were diluted and boiled in reducing sample buffer, and separated on 7–9% SDS-PAGE gels. Resolved protein was transferred to Sequi-blot™ PVDF membrane (Bio-Rad, Inc., Hercules, Calif.) and blocked with FBS for 1 hr at RT. Blots were incubated with rat IgM anti-human CLA HECA-452 (1 μg/ml), mouse IgG anti-human PSGL-1 moAbs PL-2 (1 μg/ml), 203, 4F9 and 4D8 (1 μg each/ml), or mouse IgG anti-human CD43 L60 (1 μg/ml) for 1 hr at RT. Isotype control immunoblots using either rat IgM or mouse IgG were performed in parallel to evaluate non-specific reactive proteins. After three washes with PBS/0.1%Tween-20 (10 min/wash), blots were incubated with the respective secondary Ab, AP-conjugated goat anti-rat IgM (1:400) or goat anti-mouse IgG (1:8000). AP substrate, Western Blue® (Promega, Madison, Wis.) was then added to develop blots.
Cells were then re-cultured in the presence of glycosylation inhibitor, diluent control (PBS) or molecular control (GlcNAc) for 30 hr and then harvested for CLA expression and functional analysis. […] To assess the duration of anti-carbohydrate effects on HECA-452 expression on PSGL-1, cells treated with 4-F-GlcNAc for 30 h and were then re-cultured in non-4-F-GlcNAc-containing medium for 72 h.
For orientation: In western blotting, separated proteins are transferred to a membrane and probed.

Data set [8] deals with α-mannose (ConA staining). The format is cell-based, human. Conditions: compared with PBS or GlcNAc treatments. The protocol: (§5) For lectin blotting, cell lysates (25 μg/spot) were spotted onto methanol-permeabilized PVDF membrane and blocked in FBS for 1 h at RT. Blots were then probed with AP-Canavalia ensiformis agglutinin (ConA) (2.0 μg/ml PBS; specificity: α-mannose), AP-Triticum vulgaris (Wheat germ) agglutinin (WGA) (0.5 μg/ml PBS; specificity: terminal GlcNAc or GlcNAcβ1,4GlcNAc) or AP-Lycopersicon esculentum (tomato lectin) agglutinin (LEA) (1.0 μg/ml PBS; specificity: (Galβ1,4GlcNAc)n) for 1 h at RT (All lectins from EY Labs., Inc., San Mateo, Calif.). After washing 3× in PBS/0.1% Tween-20 and 1× in PBS (10 min each), blots were developed with Western Blue®.
(§6) To analyze and identify the glycan modifications on CLA^+ T-cells treated with 4-F-GlcNAc, lectin blotting experiments were performed with ConA (Specificity: α-mannose), WGA (Specificity: terminal GlcNAc or GlcNAcβ1,4GlcNAc) and LEA (Specificity: {Galβ1,4GlcNAc}n).

The subject of data set [9] is (Galβ1,4GlcNAc)n (LEA staining). The data set is described as follows: Lectin blot with LEA of CLA+ T-cell lysates. The format is cell-based, human. Conditions: compared with PBS or GlcNAc treatments. The procedure:
as §5, §6

These results are taken from patent US7098195B2, “Fluorinated glucosamine analogs useful for modulating post-translational glycosylations on cells” (Health Research, Inc., priority 2001, dated 2006).

Consider `CC(=O)N[C@H]1C(OC(C)=O)O[C@H](COC(C)=O)[C@@H](OC(C)=O)[C@@H]1F` (stereo partly drawn) [3-F-GlcNAc, 2-acetamido-2-deoxy-1,4,6-tri-O-acetyl-3-deoxy-3-fluoro-D-glucopyranose], for which, in [1], the “IC50 values, growth of tumor cell lines and normal endothelial cells” value was “identical to those that were previously described”. In addition, the dose limiting toxicity in [2] is listed as about 250 mg/kg×6 days. Also, in data set [3], the “incorporation of radiolabeled sugar precursors” value is “conspicuous reductions”.
Consider `CC(=O)N[C@H]1C(OCc2ccccc2)O[C@H](CO)[C@H](O)[C@@H]1O` (stereo partly shown) [BAG, benzyl-O-N-acetylgalactosamide], for which the “rolling adhesions on P-selectin chimera” value in data set [4] is “significant reductions”. Also, in data set [5], the “rolling adhesions on E-selectin chimera” value is given as “significant reductions”. Moreover, in [6], the “rolling adhesions on L-selectin chimera” value is on record as “significant reductions”. Further, the “de novo synthesized HECA-452 epitopes on PSGL-1 (Western blot)” value in [7] is listed as “marked reduction”. Moreover, in [7] (concentrations below 1.0 mM, preliminary, data not shown), the “effects on HECA-452 expression” value is on record as “minimal effects”. In addition, in data set [8], the “ConA staining of lysates” value was “no effect”. In addition, the “LEA staining of lysates” value in data set [9] is given as “did not affect”.
